settings: acidic group

Row | SMILES | pKa
1 | Cc1nc(C(=O)[O-])ccc1O | 9.49
2 | OC(c1ccccc1)(c1ccncc1)c1ccncc1 | 13.1
3 | CC(I)C(=O)O (stereo not given) | 3.21
4 | C[C@@H]([NH3+])C(=O)N1CCC[C@H]1C(=O)O | 3.04
5 | Nc1cccc[n+]1O | 2.67
6 | NC(=O)c1ccncc1 | 10.5
7 | C=CC(=O)O | 4.25
8 | CC(O)C(C(=O)O)c1ccc(-c2ccccc2)cc1 (stereo not given) | 4.3
9 | [NH3+][C@@H](Cc1ccccc1)C(=O)O | 2.21
10 | CN(C)c1nnn[nH]1 | 5.92
11 | COc1ccccc1-c1nnn[nH]1 | 4.8
12 | Cc1cc(C(=O)O)cc(C)[n+]1O | -0.01
13 | CC[Si](C)(C)CC(=O)O | 5.4
14 | CCOC(=O)Nc1ncnc2nc[nH]c12 | 9.63
15 | CCCCOC(=O)c1ccc[n+](O)c1 | 0.03
16 | C=C/C(C)=C/[C@@H](C)C(=O)C[C@@H](O)CC1CC(=O)NC(=O)C1 | 11.2
17 | Cc1ccc(C(=O)O)c([N+](=O)[O-])c1 | 2.68
18 | CC1C(=O)CC(C)(C)CC1=O | 5.6
19 | CNCCc1ccc(O)c(O)c1 | 10.6
20 | O=C(O)CSc1[nH]c2cc3ccccc3cc2[nH+]1 | 1.9
21 | C[NH+]1C[C@@H](C(=O)O)C=C2c3cccc4[nH]cc(c34)C[C@@H]21 | 3.28
22 | c1ccc(CCNc2ncnc3nc[nH]c23)cc1 | 10.1
23 | CCCCOc1cccc(C(=O)O)c1 | 4.25
24 | O=C(O)c1c2ccccc2cc2ccccc12 | 3.65
25 | CC(C)(C)C1CCn2nnnc2C(C(=O)O)C1 (stereo not given) | 4.4
26 | Nc1ccc(S(=O)(=O)Nc2ccccn2)cc1 | 8.51
27 | CC(=O)c1ccccc1O | 10.4

Row | SMILES | pKa
28 | O=C1C[C@H](C(=O)O)[C@@H](C(=O)[O-])O1 | 3.82
29 | O=C(O)[C@H](P)CC[C@H](P)C(=O)O | 3.54
30 | Cc1ccc(O)c(C(=O)[O-])c1 | 14
31 | [O-]c1ccc(O)cc1Br | 10.7
32 | O=C(O)c1c(Br)cccc1[N+](=O)[O-] | 1.37
33 | O=C(O)/C=C/c1ccco1 | 4.29
34 | S=C(Nc1ccc(Br)cc1)c1cccc(Br)c1 | 9.96
35 | N#Cc1ccccc1O | 7.32
36 | O=[N+]([O-])c1ccccc1O | 7.15
37 | C[C@H]1CC[C@H](C(=O)O)CC1 | 4.89
38 | O=C(O)c1cc(Br)cs1 | 3.11
39 | Oc1ccc2cc(Cl)ccc2c1 | 9.31
40 | CC(C)[NH2+]CC(=O)c1ccc(O)cc1 | 7.56
41 | CCc1c(O)nn(-c2ccccc2)c1C | 12.3
42 | C[n+]1c2ccccc2nc2c(O)cccc21 | 4.85
43 | O=C(O)Cc1ccc(-c2ccccc2)cc1 | 4.46
44 | O/C(=C\c1ccccc1)c1ccco1 | 8.5
45 | CCOC(=S)S | 1.79
46 | CC(=O)NBr | 8.1
47 | O=C(O)c1cc[nH]n1 | 3.84
48 | CNC(=O)/C=C\C(=O)O | 3.98
49 | CNC(=O)CS | 8.05
50 | O=[N+]([O-])c1ccc([O-])c(O)c1 | 10.9
51 | O=C1NC(=O)/C(=C/c2ccccc2)N1 | 8.6
52 | [O-]c1[nH+]c(O)nc2nc[nH]c12 | 7.56
53 | C=C(C)C(C)(C(N)=O)C(=O)O (stereo not given) | 3.42
54 | C[N+](C)(C)c1cccc(O)c1 | 8.07

Row | SMILES | pKa
55 | O=C(O)CS/C=C/c1ccccc1 | 3.5
56 | O[n+]1ccc(OCc2ccccc2)cc1 | 1.99
57 | O=[N+]([O-])c1cccc(-c2ccc(O)cc2)c1 | 9.14
58 | [O-]c1cc([O-])cc(O)c1 | 14.1
59 | O=C(O)c1ccccc1Cl | 2.95
60 | C=C[C@]1(O)C[NH+]2CC[C@H]1C[C@H]2[C@H](O)c1cc(O)[nH+]c2ccccc12 | 2.76
61 | CN(C)C(=O)/C=C(\O)c1ccncc1 | 7.32
62 | N#CCC(=O)NN | 11.1
63 | O=C([O-])C[N+](=O)[O-] | 8.9
64 | O=C(O)c1nsc2ccccc12 | 2.76
65 | CC(=O)c1ccc(CC(=O)O)s1 | 3.8
66 | O=C(O)C12CC3CC(CC(F)(C3)C1)C2 | 4.22
67 | O=C(Nc1nnc(-c2ccccc2)s1)c1ccccc1 | 6.8
68 | CCOC(=O)CC(C)=O | 10.7
69 | Cc1cc(C)c([N+](=O)[O-])c(C)c1O | 8.98
70 | Cc1cc[n+](O)cc1 | 1.29
71 | N#Cc1c(-c2nc3ccccc3s2)c(=O)oc2cc(O)ccc12 | 6.38
72 | C[NH+](C)CC(=O)O | 1.99
73 | CCCCNc1ncnc2[nH]ncc12 | 11.2
74 | CO/C(C)=C\C(=O)O | 5.81
75 | CC[NH+](CC)Cc1c(O)cccc1Cl | 7.5
76 | C[NH+](C)CCc1c[nH]c2ccc(O)cc12 | 9.73
77 | NNC(=O)c1cccnc1 | 11.5
78 | O=C([O-])[C@@H]1CC[C@H](C(=O)O)C1 | 5.52
79 | CC(C)[C@@]12C[NH2+][C@@H](C(=O)O)[C@@H]1CC(=O)O2 | 2.45
80 | N#CCC(C(=O)O)c1ccccc1 (stereo not given) | 3.44

same assay, conditions: basic group

Row | SMILES | pKa
81 | Cc1nc(C(=O)[O-])ccc1O | 5.13
82 | Cc1cc(N)cc[n+]1[O-] | 4.1
83 | O=C1[C@H]2C[C@H](CN3CCCC[C@@H]23)C2=CCCCN12 | 7.7
84 | NCCCCCc1cccnc1 | 10.3
85 | C[NH+](C)Cc1cnc2ccc(-c3ccccc3)nn12 | 2.99
86 | Nc1cc(C[NH3+])ccc1Cl | 3.71
87 | Cc1cc(N)cc(C)c1C | 5.15
88 | CN(C)/C=N/c1cccc(Cl)c1 | 7.97
89 | Cc1ccc2nc3ccc(C)cc3cc2c1 | 4.5
90 | NC(=O)c1ccncc1 | 3.57
91 | C[NH+](C)CCC/N=C(\c1ccccc1)c1ccccc1Cl | 3.46
92 | CCN(CC)CC(=O)NC1CCCCC1 | 8.21
93 | c1nc(NC2CCCCC2)c2ncn(C3CCCCC3)c2n1 | 4.4
94 | CCOC(=O)Nc1ncnc2nc[nH]c12 | 2.4
95 | Nc1ncnc2c1cnn2-c1ccccc1 | 3.89
96 | C=CCSS/C(CCO)=C(/C)N(C=O)Cc1cnc(C)nc1N | 5.65
97 | Cc1ncnc2c1NCCN2 | 6.74
98 | CCc1c(C)nn(C)c1O | 3.5
99 | CC(C)(C)N | 10.7
100 | CC(C)CC(N)C(=O)[O-] (stereo not given) | 9.76
101 | CCCN(CC(C)O)CC(O)CC (stereo not given) | 9
102 | CC(C)(C(=O)[O-])c1c[nH]c(CO)n1 | 7.38
103 | CCCCCCCCCCCCCCCCN(CC(C)O)CC(C)O (stereo not given) | 9.19
104 | CCOC(=O)COc1ccc(C(=O)c2ccc([O-])c(CN)c2)c(Cl)c1Cl | 10.6

Row | SMILES | pKa
105 | CCCCCCN(CCO)CC(O)CC (stereo not given) | 9.1
106 | CCCCCCCCCCNCCC(=O)[O-] | 10.6
107 | COc1ccc(CCN)cc1 | 9.79
108 | O=C([O-])c1cc(-c2ccccc2)nnc1NCCN1CCOCC1 | 7.07
109 | CCCCCCCNCc1ccc(C)cc1 | 10
110 | Cc1cnc(C)c(C)n1 | 2.65
111 | Cc1ccc([N+](=O)[O-])c2c(NCCC[NH+](C)C)c3ccccc3nc12 | 6.29
112 | CC(=O)OC(C)CN(C)C (stereo not given) | 8.31
113 | CNCCc1ccc(O)c(O)c1 | 8.84
114 | CC(=O)CCN(C)C | 8.95
115 | CSc1ccc(N)cc1I | 3.44
116 | CCCCCCNCc1ccc(C)cc1 | 10.2
117 | c1ccc(CCNc2ncnc3nc[nH]c23)cc1 | 4.2
118 | C[C@H]1CC[C@H]2[C@H](C)CC[C@@H](C(=O)[O-])N2C1 | 10.8
119 | Nc1ccc(S(=O)(=O)Nc2ccccn2)cc1 | 2.58
120 | CN(C)c1ccc([N+](C)(C)C)cc1 | 2.64
121 | CCCCSCCN | 8.37
122 | COc1ccc2c3c1O[C@H]1[C@@H](O)C=C[C@H]4[C@@H](C2)N(C)CC[C@@]341 | 8.05
123 | Cc1ccc(C2=NCCC2)cc1 | 6.41
124 | CCCCNCC(=O)[O-] | 10.2
125 | CN(C)CCCO | 9.76
126 | Cc1cc(C)n(-c2cccc[nH+]2)n1 | -2.4
127 | CNCCN(C)CC[NH2+]C | 9.84
128 | O=C(CCl)CCl | 11

Row | SMILES | pKa
129 | Cn1ncc2cncnc21 | 2.5
130 | CCCCC(N)C(=O)[O-] (stereo not given) | 9.89
131 | Clc1nc2cc3c(cc2[nH]1)CCCC3 | 2.68
132 | C=CCNc1ccccc1 | 4.17
133 | Nc1ccccc1NC(=O)c1ccc([N+](=O)[O-])cc1 | 3.01
134 | CC1=C(CC(C)NCC(O)c2ccc([N+](=O)[O-])cc2)CCC1(C)C (stereo not given) | 8.36
135 | C[Se]CCN | 9.53
136 | CCN(CC1CO1)CC1CO1 (stereo not given) | 6.91
137 | CN(C)CCC/N=C(\c1ccccc1)c1cccc2ccccc12 | 9
138 | Cn1ccc(=N)c2ccccc21 | 12.4
139 | Cc1cccc(CN)c1 | 9.37
140 | Cc1cccc(Nc2ccccc2)c1 | 0.92
141 | O=C1C[C@H]2OCC=C3CN4CC[C@@]56c7ccccc7N1[C@@H]5[C@@H]2[C@@H]3C[C@@H]46 | 8.18
142 | CCOc1ccc2nc3cc([N+](=O)[O-])ccc3c(N)c2c1 | 7.5
143 | [O-]/C(=C/c1ccncc1)c1ccccc1 | 7.05
144 | CCCCCCCCN1CCCCC1 | 8.28
145 | C=CCN1CC[C@]23c4c5ccc(O)c4O[C@H]2[C@@H](O)C=C[C@H]3[C@H]1C5 | 7.83
146 | C1=C(c2ccco2)C2CCN1CC2 | 8.92
147 | CNCC(=O)NCCc1c[nH]cn1 | 8.31
148 | C[C@H]1CN[C@@H](C)CN1 | 9.98
149 | CCOC(=O)C(C)N (stereo not given) | 7.8
150 | C[NH+](C)CCCCN1C=Nc2cccc3cccc1c23 | 5.3
151 | CC(C)N/C=N/c1ccc(-c2cn(C)cn2)cc1 | 8.99
152 | C1CCN(C2CCNCC2)CC1 | 10.7

Row | SMILES | pKa
153 | Cc1ccc(-c2nnc(-c3ccccc3)o2)cc1 | 1.81
154 | NCC(F)F | 7.09
155 | N#CCC(=O)NN | 2.34
156 | CCN(CC)CCNc1cc(Nc2ccc(Cl)cc2)nc(C)n1 | 9.3
157 | C[NH+](C)CCC/N=C(\c1ccccc1)c1ccc2ccccc2c1 | 5.1
158 | N#CC(N)c1ccccc1 (stereo not given) | 4.4
159 | CCN(C)N(C)C | 6.38
160 | CCCCNc1nnc(-c2ccccc2)cc1C | 6.1
161 | COc1ccc(CN)cc1 | 9.67
162 | c1cncc([C@@H]2CCCCN2)c1 | 4.01
163 | CCSC(=O)c1cccc(C)c1 | -4.77
164 | O=[N+]([O-])c1ccc2[nH]c(C(F)(F)Cl)nc2c1 | 0.77
165 | CC(=O)N=S(C)C | 3.16
166 | c1ccc2c(c1)[NH+]=C(c1ccncc1)[NH2+]2 | 1.96
167 | CCCCNc1ncnc2[nH]ncc12 | 4.67
168 | CN(C)/C=N/c1cccc(Br)c1 | 8.08
169 | CCN(C)NC | 6.85
170 | CCOC(=O)C(N)CC (stereo not given) | 7.71
171 | C[Si](C)(C)CN | 10.9
172 | NNC(=O)c1cccnc1 | 3.27
173 | Fc1ccccn1 | -0.44
174 | Cc1cc2ncn([C@H]3OC[C@@H](O)[C@@H](O)[C@@H]3O)c2cc1C | 4.58
175 | NCC[NH2+]CCc1ccccc1 | 6.59
